# Data reported in PMC10779433, “Bidirectional Allosteric Coupling between PIP2 Binding and the Pore of the Oncochannel TRPV6” (International Journal of Molecular Sciences, 2024).
# Residues, ends and D or L forms follow the SMILES beside them. *: point of attachment. Palmitoyl = CCCCCCCCCCCCCCCC(=O)*
# What was measured:
# [1] = test system: TRPV6 K484A; experiment: NFAT screen, TRPV6 K484A; format: cell-based, human; details: HEK293 cells; 5 μM cis-22a, 2 h, vs DMSO
# Experimental: (§1) N-terminally TagRFP-labeled human TRPV6 (725 aa) was kindly provided by R. Bhardwaj and M. Hediger (University of Bern, Bern, Switzerland). This variant is translated from the first ATG codon and thus deviates from the non-ATG-initiated protein which is expressed in vivo (accession number NM_018646.6) by lacking 40 amino acids of the very N-terminus. For N-terminal labeling with EYFP, TRPV6 was cloned into pEYFP-C1 (Clontech) via EcoRI and SacII restriction sites. […]
# (§2) After incubation, cover slips were carefully rinsed with phenol red-free DMEM supplemented with the compound and dosage corresponding to the previous incubation, which was then also present during imaging. […] Subcellular NFAT localization of TRPV6 expressing cells was again monitored on an Axiovert 135 inverted microscope (Zeiss, Oberkochen, Germany), as described in more detail before. […] Images were analyzed using Matlab2018a, differentiating between three cell populations based on the ratio of CFP emission intensity originating from the nucleus and the cytosol, similar to Schober et al. (2019).
# [2] = test system: TRPV6 G488R; experiment: NFAT screen, TRPV6 G488R; format: cell-based, human; details: HEK293 cells; 5 μM cis-22a, 2 h, vs DMSO
# Experimental: as §1, §2
# [3] = test system: TRPV6 F468A; experiment: NFAT screen, TRPV6 F468A; format: cell-based, human; details: HEK293 cells; 5 μM cis-22a, 2 h; nuclear NFAT already reduced without cis-22a
# Experimental: as §1, §2
# [4] = test system: TRPV6 R492A; experiment: NFAT screen, TRPV6 R492A; format: cell-based, human; details: HEK293 cells; 5 μM cis-22a, 2 h; nuclear NFAT already reduced without cis-22a
# Experimental: as §1, §2
# [5] = test system: TRPV6 D580A; experiment: NFAT screen, TRPV6 D580A; format: cell-based, human; details: HEK293 cells; 5 μM cis-22a, 2 h, vs DMSO
# Experimental: as §1, §2
# [6] = test system: TRPV6 I575A; set-up: method as in PMID 33246965; details: HEK293 cells; 0.1 μM and 10 μM cis-22a; Figure 5B; ref [47]; cited from earlier work
# [7] = test system: TRPV6 R470A W583F; set-up: method as in PMID 33246965; details: ref [47], cited from earlier work
# [8] = test system: TRPV6 G488R; experiment: Fura-2 Ca2+ imaging, TRPV6 G488R; format: cell-based, human; details: HEK293 cells; 20 μM pal-PIP2 peptide; 2 mM Ca2+; Figure 2A
# [9] = test system: TRPV6 R470A; experiment: Whole-cell patch clamp, TRPV6 R470A; format: cell-based, human; details: HEK293 cells; 10 μM pal-PIP2 peptide; p < 0.05; Figure 4D
# Excerpt: (§3) N-terminally TagRFP-labeled human TRPV6 (725 aa) was kindly provided by R. Bhardwaj and M. Hediger (University of Bern, Bern, Switzerland). This variant is translated from the first ATG codon and thus deviates from the non-ATG-initiated protein which is expressed in vivo (accession number NM_018646.6) by lacking 40 amino acids of the very N-terminus. For N-terminal labeling with EYFP, TRPV6 was cloned into pEYFP-C1 (Clontech) via EcoRI and SacII restriction sites. Mutations (F468A, R470A, F472A, K484A/Q, G488R, R492A/Q, I575A, G579A, D580A/K, H582A, W583A/F, H587A, R589A, W593A, R632A/Q, R470A, W583F) were introduced using the QuickChange XL site-directed mutagenesis kit (Stratagene, San Diego, CA, USA) and Pfu DNA Polymerase (Promega, Madison, WI, USA). pTagRFP-hTRPV6 I575A was kindly provided by the lab of M. Hediger (University of Bern, Bern, Switzerland). Forward and reverse primers for site-directed mutagenesis were synthesized by Eurofins genomics GmbH (Wien, Vienna, Austria). Intactness of the constructs in terms of sequence was confirmed by sequencing (Microsynth Austria GmbH, Wien, Vienna, Austria; Eurofins genomics GmbH, Wien, Vienna, Austria). […]
# (§4) Electrophysiological experiments were performed at 20 °C to 24 °C in whole-cell recording configurations of the patch clamp technique. […] The liquid junction potential was determined as 12 mV; the voltages were not adjusted. […]
# [10] = test system: TRPV6 W583F; experiment: Whole-cell patch clamp, TRPV6 W583F; format: cell-based, human; details: HEK293 cells, 10 μM pal-PIP2 peptide, Figure 5C
# Excerpt: as §3, §4
SMILES,reduction of nuclear NFAT localization [1],reduction of nuclear NFAT localization [2],reduction of nuclear NFAT localization [3],reduction of nuclear NFAT localization [4],change of nuclear NFAT localization [5],response to cis-22a vs TRPV6 WT [6],"inhibition by cis-22a in electrophysiological measurements ([7]; HEK293 cells, 0.1 and 10 μM cis-22a, n=6, Figure S6B)","resistance to cis-22a vs single mutants ([7]; R470A W583F, especially at the high blocker concentration)",inhibition by cis-22a (in words) ([7]; R470A W583F),reduction of intracellular Ca2+ level [8],sensitivity to peptide-based PIP2 sequestration vs WT [9],sensitivity to peptide-based PIP2 sequestration vs WT [10]
Cc1cccc(C2CCC(N3CCN(c4cccnc4)CC3)CC2)c1.O=C(O)C(F)(F)F (stereo not drawn) [cis-22a],failed to significantly reduce NFAT nuclear localization,impeded cis-22a-based reductions in nuclear NFAT localization,further significant reduction in nucleus-targeted NFAT,further significant reduction in nucleus-targeted NFAT,not significantly changed,significantly reduced response,just modest inhibition,considerably higher resistance,very weak inhibition,,,
CCCCCCCCCCCCCCCC(=O)N[C@@H](Cc1c[nH]cn1)C(=O)N[C@@H](CCCNC(=N)N)C(=O)N[C@@H](CCC(N)=O)C(=O)N[C@@H](CCCCN)C(=O)N[C@@H](Cc1c[nH]cn1)C(=O)N[C@@H](Cc1ccccc1)C(=O)N[C@@H](CCC(=O)O)C(=O)N[C@@H](CCCCN)C(=O)N[C@@H](CCCNC(=N)N)C(=O)N[C@@H](CCCNC(=N)N)C(N)=O [pal-PIP2 peptide] (Palmitoyl-HRQKHFEKRR-NH2),,,,,,,,,,~ 2%,significantly reduced sensitivity,not changed compared to the wildtype control
